This passage reports IC50 and Ki results from ChEMBL document CHEMBL1909046, “DrugMatrix in vitro pharmacology data”.

For the first data set, the target named is T1, B2 bradykinin receptor (Homo sapiens, UniProt P30411). Note: in other assays of this panel Not Active means under 50% inhibition at 10 µM.
T1 sequence (P30411 whole entry): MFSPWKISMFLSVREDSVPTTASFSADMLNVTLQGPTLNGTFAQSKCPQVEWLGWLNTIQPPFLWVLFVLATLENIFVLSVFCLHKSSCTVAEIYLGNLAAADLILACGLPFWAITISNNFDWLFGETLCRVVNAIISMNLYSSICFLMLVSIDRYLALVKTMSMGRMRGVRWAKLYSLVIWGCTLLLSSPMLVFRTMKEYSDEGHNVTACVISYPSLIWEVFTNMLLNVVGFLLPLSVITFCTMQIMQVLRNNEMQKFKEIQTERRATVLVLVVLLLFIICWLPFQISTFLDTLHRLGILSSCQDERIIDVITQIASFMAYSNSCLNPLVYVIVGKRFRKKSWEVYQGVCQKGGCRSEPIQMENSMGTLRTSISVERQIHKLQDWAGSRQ
The data set is classed as cell membranes, Membrane. Conditions: chem-1.
Regarding `C[n+]1ccc(-c2cc[n+](C)cc2)cc1.[Cl-].[Cl-]` [PARAQUAT DICHLORIDE], the IC50 entry is “Not Active”.
The same measure, in the same setting: with `CCn1cc(C(=O)O)c(=O)c2cnc(N3CCCC3)nc21` [PIROMIDIC ACID] the entry was “Not Active”; with `C[n+]1ccccc1/C=N/O.[Cl-]` [PRALIDOXIME CHLORIDE], “Not Active”; with `COc1cc2nc(N3CCN(C(=O)c4ccco4)CC3)nc(N)c2cc1OC` [PRAZOSIN], “Not Active”.
Same read-out and setting: with `CCCN(CCC)S(=O)(=O)c1ccc(C(=O)O)cc1` [PROBENECID] the entry was “Not Active”; with `CCCOc1ccc(C(=O)OCCN(CC)CC)cc1N` [PROPARACAINE], “Not Active”.

The next data set deals with T2, Glucocorticoid receptor (Homo sapiens, UniProt P04150).
T2 sequence (P04150 whole entry): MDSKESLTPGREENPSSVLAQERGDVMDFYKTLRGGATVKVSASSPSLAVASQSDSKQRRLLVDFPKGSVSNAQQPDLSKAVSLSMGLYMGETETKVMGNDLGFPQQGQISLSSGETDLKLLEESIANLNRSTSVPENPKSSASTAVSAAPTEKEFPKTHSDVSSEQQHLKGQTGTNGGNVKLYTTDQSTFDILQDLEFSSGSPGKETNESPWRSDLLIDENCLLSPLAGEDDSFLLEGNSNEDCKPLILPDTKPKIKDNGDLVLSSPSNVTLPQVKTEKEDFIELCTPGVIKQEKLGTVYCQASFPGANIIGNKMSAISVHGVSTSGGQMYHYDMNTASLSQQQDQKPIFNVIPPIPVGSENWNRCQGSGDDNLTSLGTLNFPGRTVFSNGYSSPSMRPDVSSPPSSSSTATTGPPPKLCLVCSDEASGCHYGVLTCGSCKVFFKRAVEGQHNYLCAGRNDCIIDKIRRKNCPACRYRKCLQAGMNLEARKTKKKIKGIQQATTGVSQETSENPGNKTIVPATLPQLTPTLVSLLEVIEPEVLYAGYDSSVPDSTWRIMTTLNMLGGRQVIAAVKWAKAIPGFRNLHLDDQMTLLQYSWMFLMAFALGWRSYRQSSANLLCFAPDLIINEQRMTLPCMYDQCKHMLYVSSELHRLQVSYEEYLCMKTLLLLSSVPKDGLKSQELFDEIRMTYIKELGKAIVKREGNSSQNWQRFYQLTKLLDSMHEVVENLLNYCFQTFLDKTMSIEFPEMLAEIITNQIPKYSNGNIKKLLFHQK
As to conditions: hela s3.
On to `C[n+]1ccc(-c2cc[n+](C)cc2)cc1.[Cl-].[Cl-]` [PARAQUAT DICHLORIDE], for which the IC50 entry is recorded as “Not Active”.
The same measure, in the same setting: with `CCn1cc(C(=O)O)c(=O)c2cnc(N3CCCC3)nc21` [PIROMIDIC ACID] the entry was “Not Active”.
On to `C[n+]1ccccc1/C=N/O.[Cl-]` [PRALIDOXIME CHLORIDE], for which the IC50 entry is given as “Not Active”.
As for `COc1cc2nc(N3CCN(C(=O)c4ccco4)CC3)nc(N)c2cc1OC` [PRAZOSIN], the IC50 entry was “Not Active”.
`CCCN(CCC)S(=O)(=O)c1ccc(C(=O)O)cc1` [PROBENECID]: the IC50 result is on record as “Not Active”.
For the compound `CCCOc1ccc(C(=O)OCCN(CC)CC)cc1N` [PROPARACAINE], the IC50 result is reported as “Not Active”.

System in the next data set: not listed separately
Nature of the data set: DRUGMATRIX: Calcium Channel Type L, Dihydropyridine radioligand binding (ligand: [3H] Nitrendipine). Conditions: Not Active = under 50% inhibition at 10 µM. Format: cell membranes, Rattus norvegicus, Wistar, Cerebral cortex, Membrane.
As for `C[n+]1ccc(-c2cc[n+](C)cc2)cc1.[Cl-].[Cl-]` [PARAQUAT DICHLORIDE], the IC50 result is reported as “Not Active” and the Ki result is on record as “Not Active”.
As to `CCn1cc(C(=O)O)c(=O)c2cnc(N3CCCC3)nc21` [PIROMIDIC ACID], the IC50 result is given as “Not Active” and the Ki result is listed as “Not Active”.
As to `C[n+]1ccccc1/C=N/O.[Cl-]` [PRALIDOXIME CHLORIDE], the IC50 entry was “Not Active” and the Ki result is on record as “Not Active”.
As to `COc1cc2nc(N3CCN(C(=O)c4ccco4)CC3)nc(N)c2cc1OC` [PRAZOSIN], the IC50 result is “Not Active” and the Ki result is recorded as “Not Active”.
`CCCN(CCC)S(=O)(=O)c1ccc(C(=O)O)cc1` [PROBENECID]: the IC50 entry is recorded as “Not Active” and the Ki entry is “Not Active”.
As to `CCCOc1ccc(C(=O)OCCN(CC)CC)cc1N` [PROPARACAINE], the IC50 entry is reported as “Not Active” and the Ki result is recorded as “Not Active”.

The target of a further data set is 5-hydroxytryptamine receptor 1B (Rattus norvegicus, UniProt P28564). Format: cell membranes, Wistar, Cerebral cortex, Membrane. Note: in other assays of this panel Not Active means under 50% inhibition at 10 µM.
Sequence of 5-hydroxytryptamine receptor 1B (P28564 whole entry): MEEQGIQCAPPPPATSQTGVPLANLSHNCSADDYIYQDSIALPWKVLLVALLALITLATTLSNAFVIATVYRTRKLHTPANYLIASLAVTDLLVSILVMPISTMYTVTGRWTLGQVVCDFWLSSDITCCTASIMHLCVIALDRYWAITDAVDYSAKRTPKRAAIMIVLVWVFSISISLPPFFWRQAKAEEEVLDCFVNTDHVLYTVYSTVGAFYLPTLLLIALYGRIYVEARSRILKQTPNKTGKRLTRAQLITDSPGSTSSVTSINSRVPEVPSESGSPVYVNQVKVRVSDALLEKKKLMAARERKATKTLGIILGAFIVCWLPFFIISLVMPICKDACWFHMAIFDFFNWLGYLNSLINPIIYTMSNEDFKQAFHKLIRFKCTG
Details: not given
As to `C[n+]1ccc(-c2cc[n+](C)cc2)cc1.[Cl-].[Cl-]` [PARAQUAT DICHLORIDE], the IC50 result is “Not Active”.
For the compound `CCn1cc(C(=O)O)c(=O)c2cnc(N3CCCC3)nc21` [PIROMIDIC ACID], the IC50 result is recorded as “Not Active”.
On to `C[n+]1ccccc1/C=N/O.[Cl-]` [PRALIDOXIME CHLORIDE], for which the IC50 result is reported as “Not Active”.
The same measure, in the same setting: with `COc1cc2nc(N3CCN(C(=O)c4ccco4)CC3)nc(N)c2cc1OC` [PRAZOSIN] the entry was “Not Active”; with `CCCN(CCC)S(=O)(=O)c1ccc(C(=O)O)cc1` [PROBENECID], “Not Active”; with `CCCOc1ccc(C(=O)OCCN(CC)CC)cc1N` [PROPARACAINE], “Not Active”.

Another data set has as its target T3, Cytochrome P450 2A6 (Homo sapiens, UniProt P11509). Note: in other assays of this panel Not Active means under 50% inhibition at 10 µM.
T3 sequence (P11509 whole entry): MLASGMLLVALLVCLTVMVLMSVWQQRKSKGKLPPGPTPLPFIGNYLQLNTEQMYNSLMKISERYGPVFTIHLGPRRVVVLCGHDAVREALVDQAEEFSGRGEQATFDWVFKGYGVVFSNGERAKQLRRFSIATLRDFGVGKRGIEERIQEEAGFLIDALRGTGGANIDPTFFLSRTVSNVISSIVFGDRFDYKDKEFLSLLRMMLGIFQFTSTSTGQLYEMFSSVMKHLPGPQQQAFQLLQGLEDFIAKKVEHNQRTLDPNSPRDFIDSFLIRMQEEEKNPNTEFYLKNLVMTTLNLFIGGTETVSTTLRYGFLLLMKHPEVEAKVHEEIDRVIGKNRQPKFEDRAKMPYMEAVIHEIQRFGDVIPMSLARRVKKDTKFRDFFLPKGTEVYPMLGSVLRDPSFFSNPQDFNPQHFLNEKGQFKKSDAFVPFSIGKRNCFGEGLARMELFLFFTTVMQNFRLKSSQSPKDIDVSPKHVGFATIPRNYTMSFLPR
As to conditions: bti-tn-5b1-4.
Consider `C[n+]1ccc(-c2cc[n+](C)cc2)cc1.[Cl-].[Cl-]` [PARAQUAT DICHLORIDE], for which the IC50 entry is “Not Active” and the Ki entry was “Not Active”.
Consider `CCn1cc(C(=O)O)c(=O)c2cnc(N3CCCC3)nc21` [PIROMIDIC ACID], for which the IC50 result is “Not Active” and the Ki result is recorded as “Not Active”.
For `C[n+]1ccccc1/C=N/O.[Cl-]` [PRALIDOXIME CHLORIDE], the IC50 entry is reported as “Not Active” and the Ki result is given as “Not Active”.
For the compound `COc1cc2nc(N3CCN(C(=O)c4ccco4)CC3)nc(N)c2cc1OC` [PRAZOSIN], the IC50 entry is “Not Active” and the Ki entry is “Not Active”.
On to `CCCN(CCC)S(=O)(=O)c1ccc(C(=O)O)cc1` [PROBENECID], for which the IC50 entry is reported as “Not Active” and the Ki result is on record as “Not Active”.
On to `CCCOc1ccc(C(=O)OCCN(CC)CC)cc1N` [PROPARACAINE], for which the IC50 result is on record as “Not Active” and the Ki result is reported as “Not Active”.

System in a further data set: not listed separately
The data set can be described thus: DRUGMATRIX: Sigma2 radioligand binding (ligand: [3H] Ifenprodil). The data set is classed as cell membranes, Rattus norvegicus, Wistar, Brain, Membrane. As to conditions: Not Active = under 50% inhibition at 10 µM.
In the case of `C[n+]1ccc(-c2cc[n+](C)cc2)cc1.[Cl-].[Cl-]` [PARAQUAT DICHLORIDE], the IC50 result is reported as “Not Active” and the Ki entry is reported as “Not Active”.
For `CCn1cc(C(=O)O)c(=O)c2cnc(N3CCCC3)nc21` [PIROMIDIC ACID], the IC50 entry was “Not Active” and the Ki entry is “Not Active”.
`C[n+]1ccccc1/C=N/O.[Cl-]` [PRALIDOXIME CHLORIDE]: the IC50 entry is given as “Not Active” and the Ki result is on record as “Not Active”.
`COc1cc2nc(N3CCN(C(=O)c4ccco4)CC3)nc(N)c2cc1OC` [PRAZOSIN]: the IC50 result is listed as “Not Active” and the Ki entry was “Not Active”.
In the case of `CCCN(CCC)S(=O)(=O)c1ccc(C(=O)O)cc1` [PROBENECID], the IC50 result was “Not Active” and the Ki entry is listed as “Not Active”.
For the compound `CCCOc1ccc(C(=O)OCCN(CC)CC)cc1N` [PROPARACAINE], the IC50 entry is listed as “Not Active” and the Ki result is on record as “Not Active”.

The target in a further data set is Protein kinase C alpha type (Homo sapiens, UniProt P17252). Format: cell-based. Conditions: sf9.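 Note: inhibition of PKCalpha kinase activity measured in an enzyme assay with histone as the phosphorylation substrate; in other assays of this panel Not Active means under 50% inhibition at 10 µM.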
For `C[n+]1ccc(-c2cc[n+](C)cc2)cc1.[Cl-].[Cl-]` [PARAQUAT DICHLORIDE], the IC50 result is recorded as “Not Active”.
Regarding `CCn1cc(C(=O)O)c(=O)c2cnc(N3CCCC3)nc21` [PIROMIDIC ACID], the IC50 result is listed as “Not Active”.
Still for that read-out and setting: with `C[n+]1ccccc1/C=N/O.[Cl-]` [PRALIDOXIME CHLORIDE] the entry was “Not Active”; with `COc1cc2nc(N3CCN(C(=O)c4ccco4)CC3)nc(N)c2cc1OC` [PRAZOSIN], “Not Active”.
Same read-out and setting: with `CCCN(CCC)S(=O)(=O)c1ccc(C(=O)O)cc1` [PROBENECID] the entry was “Not Active”; with `CCCOc1ccc(C(=O)OCCN(CC)CC)cc1N` [PROPARACAINE], “Not Active”.

System in another data set: not listed separately
The data set can be described thus: DRUGMATRIX: Nicotinic Acetylcholine radioligand binding (ligand: [125I] Epibatidine). Format: cell membranes, Membrane. Conditions: imr-32; Not Active = under 50% inhibition at 10 µM.
Take `C[n+]1ccc(-c2cc[n+](C)cc2)cc1.[Cl-].[Cl-]` [PARAQUAT DICHLORIDE]: the IC50 result is on record as “Not Active” and the Ki entry is “Not Active”.
Take `CCn1cc(C(=O)O)c(=O)c2cnc(N3CCCC3)nc21` [PIROMIDIC ACID]: the IC50 result was “Not Active” and the Ki result is recorded as “Not Active”.
Consider `C[n+]1ccccc1/C=N/O.[Cl-]` [PRALIDOXIME CHLORIDE], for which the IC50 entry is “Not Active” and the Ki result is “Not Active”.
Take `COc1cc2nc(N3CCN(C(=O)c4ccco4)CC3)nc(N)c2cc1OC` [PRAZOSIN]: the IC50 entry is listed as “Not Active” and the Ki entry was “Not Active”.
Turning to `CCCN(CCC)S(=O)(=O)c1ccc(C(=O)O)cc1` [PROBENECID], the IC50 result was “Not Active” and the Ki entry is listed as “Not Active”.
As for `CCCOc1ccc(C(=O)OCCN(CC)CC)cc1N` [PROPARACAINE], the IC50 result is given as “Not Active” and the Ki entry is on record as “Not Active”.
